Test results: publication PMC11672653 (Antibiotics, 2024)

What was measured:
[1] = HPLC-MS/MS re-analysis of frozen VCM-spiked human serum (accuracy, stability); settings: one week, several freeze/thaw cycles
Procedure: The same samples spiked with VCM were frozen and analyzed by HPLC-MS/MS one week later.
Frozen serum samples were thawed prior to analysis and assayed for VCM concentration by ELISA and LC-MS/MS in parallel. The procedure and sample preparation for LC-MS/MS analysis are detailed in the Supplementary File.
An aliquot (10 μL) of the analyte working solution and an aliquot (10 μL) of the IS working solution (1000 ng/ml) were added to an aliquot (100 μL) of serum. After vortexing the sample, 400 μL of cooled (4 °C) water contacting 15% trifluoroacetic acid was added for precipitation, and the sample was mixed well and centrifuged (2750 × g, 15 min, 4 °C). An aliquot (20 μL) of the supernatant was transferred to a test plate containing 230 μL ACN/H2O (10/90) solution for further UPLC-MS/MS analysis (Table S2). Calibration was constructed as a function of VCM concentrations versus corresponding peak area values (Figure S2).
Table S2. Calibration of spiked human serum samples using HPLC-MS/MS (n=4) […]
Figure S2. Calibration of spiked human serum samples using HPLC-MS/MS
Table S3. Recovery from spiked human serum samples using HPLC-MS/MS (N=6) […]
(1 picture or pasted object on this page, not shown here)

[2] = cited from earlier work
[3] = system: polyclonal antibodies against ERM (anti-ERM antibody); experiment: Competitive indirect ELISA with anti-eremomycin antibody and heterologous VCM coating conjugates; format: binding, rabbit; settings: for IC50: cross-reactivity study, eremomycin antibody-based ELISA for vancomycin (coating BSA-VCM×50f); for CR (cross-reactivity): relative to vancomycin = 100%, eremomycin antibody-based ELISA (coating BSA-VCM×50f)
Procedure: The coating conjugates were adsorbed in 96-well plates from solutions (0.05–1.5 µg/mL) in 0.1 mL CBB. After overnight incubation at 4 °C, the plates were washed three times with PBST to remove unbound reagent. Serial dilutions of antibodies in 0.1 mL 1% BSA-PBST were combined with standard (0, 0.01–10,000 ng/mL) in 0.1 mL PBST and incubated for 1 h at 25 °C. Following the washing procedure, the bound antibody was then detected using the GAR-HRP (1 h, 37 °C) in 0.1 mL of 1% BSA-PBS and subsequently washed out. The enzymatic activity was determined by the addition of TMB substrate (0.1 mL) to the wells, followed by the addition of 0.1 mL of 1 M sulfuric acid 30 min later, which terminated the reaction. The absorbance of the colored reaction product was read at 450 nm using a LisaScan spectrophotometer (Erba Mannheim, Karásek, Czech Republic).
The maximum optical output signal (100%) at zero concentration of VCM was referred to as B0. The decrease in the signal caused by each antibiotic concentration was expressed as the B/B0 ratio and was used to construct standard curves using a four-parameter logistic fitting in GraphPad Prism 8.0 software. The VCM half-inhibitory concentration (IC50) served as the sensitivity value for the comparison of assay variants and the cross-reactivity of analogs.
The checkerboard titration was employed to identify the optimal ratio of coating antigen to antibody, with concentrations taken in a serial fashion.

For `CN[C@H](CC(C)C)C(=O)N[C@H]1C(=O)N[C@@H](CC(N)=O)C(=O)N[C@H]2C(=O)N[C@H]3C(=O)N[C@H](C(=O)N[C@H](C(=O)O)c4cc(O)cc(O)c4-c4cc3ccc4O)[C@H](O)c3ccc(c(Cl)c3)Oc3cc2cc(c3O[C@@H]2O[C@H](CO)[C@@H](O)[C@H](O)[C@H]2O[C@H]2C[C@](C)(N)[C@H](O)[C@H](C)O2)Oc2ccc(cc2Cl)[C@H]1O` [Vancomycin], the “stability in human serum” value [1] is listed as “stability of the analyte in human serum” and the “recommended Ctrough range” value [2] is listed as 15 to 20 µg/mL.
With `CNC(C)C1CCC(N)C(OC2C(N)CC(N)C(OC3OCC(C)(O)C(NC)C3O)C2O)O1` (centres unmarked) [Gentamicin] the IC50 [3] was >10,000 ng/mL and the “CR (cross-reactivity)” value [3] was <0.3%.
With Colistin the IC50 [3] was >10,000 ng/mL and the “CR (cross-reactivity)” value [3] was <0.3%.
For Teicoplanin, the IC50 [3] was >10,000 ng/mL, the “CR (cross-reactivity)” value [3] was <0.3% and the “CR (cross-reactivity)” value ([3]; listed as teicoplanin) was < 0.3%.
In the case of `CN(C)c1cc(NC(=O)CNC(C)(C)C)c(O)c2c1C[C@H]1C[C@H]3[C@H](N(C)C)C(O)=C(C(N)=O)C(=O)[C@@]3(O)C(O)=C1C2=O` [Tigecycline], the IC50 [3] is reported as >10,000 ng/mL and the “CR (cross-reactivity)” value [3] is reported as <0.3%.
For Eremomycin, the IC50 [3] was 33.0 ng/mL and the “CR (cross-reactivity)” value [3] was 104%.
For Polymyxin B, the IC50 [3] was >10,000 ng/mL and the “CR (cross-reactivity)” value [3] was <0.3%.
With `CC(=O)NC[C@H]1CN(c2ccc(N3CCOCC3)c(F)c2)C(=O)O1` [Linezolid] the IC50 [3] was >10,000 ng/mL and the “CR (cross-reactivity)” value [3] was <0.3%.
For `NCC[C@H](O)C(=O)N[C@@H]1C[C@H](N)[C@@H](O[C@H]2O[C@H](CN)[C@@H](O)[C@H](O)[C@H]2O)[C@H](O)[C@H]1O[C@H]1O[C@H](CO)[C@@H](O)[C@H](N)[C@H]1O` [Amikacin], the IC50 [3] was >10,000 ng/mL and the “CR (cross-reactivity)” value [3] was <0.3%.
With `CC[C@H]1OC(=O)[C@H](C)[C@@H](O[C@H]2C[C@@](C)(OC)[C@@H](O)[C@H](C)O2)[C@H](C)[C@@H](O[C@@H]2O[C@H](C)C[C@H](N(C)C)[C@H]2O)[C@](C)(O)C[C@@H](C)CN(C)[C@H](C)[C@@H](O)[C@]1(C)O` [Azithromycin] the IC50 [3] was >10,000 ng/mL and the “CR (cross-reactivity)” value [3] was <0.3%.
With `C[C@@H](O)[C@H]1C(=O)N2C(C(=O)O)=C(S[C@@H]3CN[C@H](C(=O)N(C)C)C3)[C@H](C)[C@H]12` [Meropenem] the IC50 [3] was >10,000 ng/mL and the “CR (cross-reactivity)” value [3] was <0.3%.
